From patent US6444617B1, “Fused-heterocycle dicarboxylic acid diamide derivatives or salts thereof, herbicide and usage thereof” (Nihon Nohyaku Co., Ltd., priority 1998, dated 2002)

Experiments:
Type in all cases: in vivo
wheat = assay: Test Example 4: phytotoxicity to upland crop plants, treatment after emergence; settings: dosage 5 kg/ha, sprayed after emergence, judged 14 days after treatment
Method in brief: (§1)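 Upland weeds and crop plants (soybean, wheat) are grown from seed in soil until they reach given leaf stages, then treated by spraying with the compound-containing agent; effects are judged two weeks later.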

soybean plant = assay: as above; settings: dosage 5 kg/ha, sprayed after emergence, judged 14 days after treatment
Method in brief: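 Weeds and soybean grown in soil-filled vats to set leaf stages, then sprayed post-emergence with the compound at a prescribed concentration. Weed-killing rate and crop phytotoxicity judged 14 days after treatment.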

wheat (Wh) = assay: Test Example 3: phytotoxicity to upland crop plants, treatment before emergence; settings: dosage 5 kg/ha
Method in brief: (§2)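 Crops treated before emergence with sprayed liquid preparation of compound (prescribed concentration). Day 14: phytotoxicity graded per criterion.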

soybean plant (So) = assay: as above; settings: dosage 5 kg/ha
Method in brief: as §2

[1] = test system: bird's eye speedwell (Veronica persica Poir.), Vp; assay: Test Example 3: herbicidal effect on upland weeds before emergence; settings: dosage 5 kg/ha
Method in brief: (§3)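 Herbicidal activity was rated from kill rate determined 14 days post-spray, the compound having been applied pre-emergence as a liquid agent.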

[2] = test system: velvetleaf (Abutilon theophtasti L.), At; assay: as above; settings: dosage 5 kg/ha
Method in brief: as §3

[3] = test system: cleavers (Galium aparine L.), Ga; assay: as above; settings: dosage 5 kg/ha
Method in brief: as §3

[4] = test system: forxtail grass (Alopecurus aequalis var. amurensis Ohwi), Am; assay: as above; settings: foxtail grass, dosage 5 kg/ha
Method in brief: as §3

[5] = test system: cocklebur (Xanthium strumarium L.), Xs; assay: as above; settings: dosage 5 kg/ha
Method in brief: as §3

[6] = test system: barnyard grass (Echinochloa crus-galli Beauv.), Ec; assay: as above; settings: dosage 5 kg/ha
Method in brief: as §3

[7] = test system: bird's eye speedwell (Veronica persica Poir.), Vp; assay: Test Example 4: herbicidal effect on upland weeds after emergence; settings: dosage 5 kg/ha; sprayed after emergence; judged 14 days after treatment
Method in brief: as §1

[8] = test system: velvetleaf (Abutilon theophtasti L.), At; assay: as above; settings: dosage 5 kg/ha; sprayed after emergence; judged 14 days after treatment
Method in brief: as §1

[9] = test system: cleavers (Galium aparine L.), Ga; assay: as above; settings: dosage 5 kg/ha; sprayed after emergence; judged 14 days after treatment
Method in brief: as §1

[10] = test system: forxtail grass (Alopecurus aequalis var. amurensis Ohwi), Am; assay: as above; settings: dosage 5 kg/ha; sprayed after emergence; judged 14 days after treatment
Method in brief: as §1

[11] = test system: cocklebur (Xanthium strumarium L.), Xs; assay: as above; settings: dosage 5 kg/ha; sprayed after emergence; judged 14 days after treatment
Method in brief: as §1

[12] = test system: barnyard grass (Echinochloa crus-galli Beauv.), Ec; assay: as above; settings: dosage 5 kg/ha; sprayed after emergence; judged 14 days after treatment
Method in brief: as §1

[13] = test system: barnyard grass (Echinochloa crus-galli Beauv.); assay: Test Example 1: herbicidal effect on paddy field weeds before emergence; settings: Dosage 5 kg/ha
Method in brief: (§4)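 Soil in pots is brought to paddy state and seeded with barnyard grass and bulrush; before germination, the soil receives a predetermined dosage of test compound in solution. After twenty-one days, control rate relative to untreated pots is calculated and graded.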

[14] = test system: bulrush (Scirpus juncoides Roxb.); assay: as above; settings: Dosage 5 kg/ha
Method in brief: as §4

[15] = test system: barnyard grass (Echinochloa crus-galli Beauv.); assay: Test Example 2: herbicidal effect on paddy field weeds after emergence; settings: Dosage 5 kg/ha; one-leaved stage; 21 days after treatment
Method in brief: (§5)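 Weeds in flooded paddy-soil pots were grown to the one-leaved stage, then the soil was treated with the compound solution at a set dosage.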

[16] = test system: monochoria (Monochoria vaginalis Presl); assay: as above; settings: Dosage 5 kg/ha; one-leaved stage; 21 days after treatment
Method in brief: as §5

[17] = test system: bulrush (Scirpus juncoides Roxb.); assay: as above; settings: Dosage 5 kg/ha; one-leaved stage; 21 days after treatment
Method in brief: as §5

Compound	Phytotoxicity Wh (wheat)	Phytotoxicity So (soybean plant)	Phytotoxicity Wh (wheat (Wh))	Phytotoxicity So (soybean plant (So))	Herbicidal effect Vp [1]	Herbicidal effect At [2]	Herbicidal effect Ga [3]	Herbicidal effect Am [4]	Herbicidal effect Xs [5]	Herbicidal effect Ec [6]	Herbicidal effect Vp [7]	Herbicidal effect At [8]	Herbicidal effect Ga [9]	Herbicidal effect Am [10]	Herbicidal effect Xs [11]	Herbicidal effect Ec [12]	Pre-emergence treatment Barnyard grass (herbicidal effect) [13]	Pre-emergence treatment Bulrush (herbicidal effect) [14]	Post-emergence treatment Barnyard grass (herbicidal effect) [15]	Post-emergence treatment Monochoria (herbicidal effect) [16]	other results
CCCNC(=O)c1nc2cc(OC)c(OC)cc2cc1C(=O)Nc1c(CC)ccc(Cl)c1CC [compound 305]	2 (Crop-killing rate is 40-69%.)	1 (Crop-killing rate is 1-39%.)	2 (Crop-killing rate is 40-69%.)	0 (Crop-killing rate is 0-20% (No Phytotoxicity).)	4 (Weed-killing rate is 90-99%.)	4 (Weed-killing rate is 90-99%.)	3 (Weed-killing rate is 70-89%.)	4 (Weed-killing rate is 90-99%.)	3 (Weed-killing rate is 70-89%.)	5 (Weed-killing rate is 100%.)	4 (Weed-killing rate is 90-99%.)	4 (Weed-killing rate is 90-99%.)	2 (Weed-killing rate is 40-69%.)	3 (Weed-killing rate is 70-89%.)	2 (Weed-killing rate is 40-69%.)	4 (Weed-killing rate is 90-99%.)	5 (Weed-killing rate is 100%.)	4 (Weed-killing rate is 90-99%.)	4 (Weed-killing rate is 90-99%.)	5 (Weed-killing rate is 100%.)	Post-emergence treatment Bulrush (herbicidal effect) [17]: 3 (Weed-killing rate is 70-89%.)
CCc1ccc(Cl)c(CC)c1NC(=O)c1cc2cc(OC)c(OC)cc2nc1C(=O)NCC(C)C [compound 310]	2 (Crop-killing rate is 40-69%.)	0 (Crop-killing rate is 0-20% (No Phytotoxicity).)	2 (Crop-killing rate is 40-69%.)	0 (Crop-killing rate is 0-20% (No Phytotoxicity).)	4 (Weed-killing rate is 90-99%.)	4 (Weed-killing rate is 90-99%.)	3 (Weed-killing rate is 70-89%.)	4 (Weed-killing rate is 90-99%.)	3 (Weed-killing rate is 70-89%.)	4 (Weed-killing rate is 90-99%.)	3 (Weed-killing rate is 70-89%.)	4 (Weed-killing rate is 90-99%.)	2 (Weed-killing rate is 40-69%.)	3 (Weed-killing rate is 70-89%.)	3 (Weed-killing rate is 70-89%.)	4 (Weed-killing rate is 90-99%.)	4 (Weed-killing rate is 90-99%.)	3 (Weed-killing rate is 70-89%.)	3 (Weed-killing rate is 70-89%.)	5 (Weed-killing rate is 100%.)	Post-emergence treatment Bulrush (herbicidal effect) [17]: 2 (Weed-killing rate is 40-69%.)
CCCNC(=O)c1nc2cc3c(cc2cc1C(=O)Nc1c(CC)ccc(Cl)c1CC)OCO3 [compound 334]	2 (Crop-killing rate is 40-69%.)	1 (Crop-killing rate is 1-39%.)	2 (Crop-killing rate is 40-69%.)	0 (Crop-killing rate is 0-20% (No Phytotoxicity).)	4 (Weed-killing rate is 90-99%.)	5 (Weed-killing rate is 100%.)	3 (Weed-killing rate is 70-89%.)	4 (Weed-killing rate is 90-99%.)	3 (Weed-killing rate is 70-89%.)	4 (Weed-killing rate is 90-99%.)	4 (Weed-killing rate is 90-99%.)	4 (Weed-killing rate is 90-99%.)	3 (Weed-killing rate is 70-89%.)	3 (Weed-killing rate is 70-89%.)	3 (Weed-killing rate is 70-89%.)	4 (Weed-killing rate is 90-99%.)	5 (Weed-killing rate is 100%.)	4 (Weed-killing rate is 90-99%.)	4 (Weed-killing rate is 90-99%.)	5 (Weed-killing rate is 100%.)	Post-emergence treatment Bulrush (herbicidal effect) [17]: 4 (Weed-killing rate is 90-99%.)
CCc1ccc(Cl)c(CC)c1NC(=O)c1cc2cc3c(cc2nc1C(=O)NCC(C)C)OCO3 [compound 339]	2 (Crop-killing rate is 40-69%.)	1 (Crop-killing rate is 1-39%.)	1 (Crop-killing rate is 1-39%.)	0 (Crop-killing rate is 0-20% (No Phytotoxicity).)	4 (Weed-killing rate is 90-99%.)	4 (Weed-killing rate is 90-99%.)	3 (Weed-killing rate is 70-89%.)	4 (Weed-killing rate is 90-99%.)	2 (Weed-killing rate is 40-69%.)	4 (Weed-killing rate is 90-99%.)	4 (Weed-killing rate is 90-99%.)	4 (Weed-killing rate is 90-99%.)	2 (Weed-killing rate is 40-69%.)	3 (Weed-killing rate is 70-89%.)	2 (Weed-killing rate is 40-69%.)	4 (Weed-killing rate is 90-99%.)	4 (Weed-killing rate is 90-99%.)	3 (Weed-killing rate is 70-89%.)	3 (Weed-killing rate is 70-89%.)	4 (Weed-killing rate is 90-99%.)	Post-emergence treatment Bulrush (herbicidal effect) [17]: 2 (Weed-killing rate is 40-69%.)
CCc1ccc(Cl)c(CC)c1NC(=O)c1cc2cc3c(cc2nc1C(=O)NC1CCCC1)OCO3 [compound 343]	0 (Crop-killing rate is 0-20% (No Phytotoxicity).)	0 (Crop-killing rate is 0-20% (No Phytotoxicity).)	0 (Crop-killing rate is 0-20% (No Phytotoxicity).)	0 (Crop-killing rate is 0-20% (No Phytotoxicity).)	4 (Weed-killing rate is 90-99%.)	3 (Weed-killing rate is 70-89%.)	3 (Weed-killing rate is 70-89%.)	3 (Weed-killing rate is 70-89%.)	2 (Weed-killing rate is 40-69%.)	4 (Weed-killing rate is 90-99%.)	3 (Weed-killing rate is 70-89%.)	3 (Weed-killing rate is 70-89%.)	2 (Weed-killing rate is 40-69%.)	2 (Weed-killing rate is 40-69%.)	2 (Weed-killing rate is 40-69%.)	4 (Weed-killing rate is 90-99%.)	5 (Weed-killing rate is 100%.)	3 (Weed-killing rate is 70-89%.)	3 (Weed-killing rate is 70-89%.)	5 (Weed-killing rate is 100%.)	Post-emergence treatment Bulrush (herbicidal effect) [17]: 3 (Weed-killing rate is 70-89%.)
